Source: patent US4499082A, “α-Aminoboronic acid peptides” (E. I. Du Pont de Nemours and Company, priority 1983, dated 1985)
Where two headings read alike, the source gives them in different places.

What was measured:
hamsters = settings: intratracheal administration; cited from earlier work
[1] = hamster, in vivo
Description: Plasma, 5 μL, containing various concentrations of inhibitor, or a dilution thereof, was incubated with 10 μL of a stock solution of 1.15×10^-5 M pancreatic elastase, in a final volume of 0.40 mL 0.10M Hepes buffer, pH 7.5, containing 0.5M NaCl at 25°. After 5 minutes incubation, 1.60 mL additional buffer and 20 μL of a 0.20M MeOSuc-AlaAlaPro-Val-pNA solution in dimethylsulfoxide was added and the increase in absorbance at 405 nm monitored. Levels of inhibitor were determined from a standard curve of % activity vs. inhibitor concentration.
FIG. 1 illustrates results of experiments in which hamsters, 50 days old, weighing 80-90 g, were administered MeOSu-AlaAlaPro-Boroval-pinacol in 1.0 mL saline at intraperitoneal dosage levels of 400, 200 and 100 mg/kg. At the indicated time intervals, blood samples (50-100 μL) were withdrawn by cardiac puncture from animals lightly anesthetized with ether, and elastase inhibitor levels determined. Normal plasma EIC is 14 μM.

neutrophil elastase [2] = target: T1, neutrophil elastase (Homo sapiens, UniProt P08246); assay: Inhibition of neutrophil elastase (Table 2); assay type: biochemical; set-up: Neutrophil elastase was prepared by the procedure described by Baugh. et al; from tissue; settings: inhibitor 5,000 nM
T1 sequence (P08246 30-267): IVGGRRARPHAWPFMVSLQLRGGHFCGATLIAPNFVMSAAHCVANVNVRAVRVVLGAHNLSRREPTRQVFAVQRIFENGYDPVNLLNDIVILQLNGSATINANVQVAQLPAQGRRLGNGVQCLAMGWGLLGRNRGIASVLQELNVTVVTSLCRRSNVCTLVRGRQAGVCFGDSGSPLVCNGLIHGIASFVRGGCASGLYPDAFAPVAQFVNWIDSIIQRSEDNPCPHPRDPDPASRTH
Description: Neutrophil elastase was prepared by the procedure described by Baugh. et al., Biochemistry 15:836 […]. Enzyme assays were conducted substantially according to the procedure disclosed by Nakajima, et al., J. Biol. […] Inhibitors were evaluated by comparing enzymatic activity measured in the presence and absence of inhibitor.

Bovine α-chymotrypsin = target: T2, Bovine α-chymotrypsin (Bos taurus, UniProt P00766); assay: Inhibition of α-chymotrypsin; assay type: biochemical; settings: inhibitor 100 nM; N.T (no detectable time dependence)
T2 construct: purchased
Description: Bovine α-chymotrypsin, obtained from commercial sources, was used to prepare stock solutions. […] Reactions were initiated by the addition of 0.040 μg of enzyme and increases in absorbance were monitored spectrophotometrically at 405 nm at 25°.

[3] = target: Porcine pancreatic elastase (Sus scrofa, UniProt P00772); assay: Inhibition of pancreatic elastase; assay type: biochemical; settings: inhibitor 5 × 10^4 nM
Chain of Porcine pancreatic elastase (P00772 27-266): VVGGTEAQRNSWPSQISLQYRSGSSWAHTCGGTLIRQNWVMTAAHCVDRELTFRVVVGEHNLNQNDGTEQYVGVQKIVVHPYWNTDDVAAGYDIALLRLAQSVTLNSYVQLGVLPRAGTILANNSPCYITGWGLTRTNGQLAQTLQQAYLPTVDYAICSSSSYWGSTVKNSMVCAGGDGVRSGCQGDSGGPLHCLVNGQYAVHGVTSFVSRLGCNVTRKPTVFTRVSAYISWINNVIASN
Description: Porcine pancreatic elastase (9.8 U/mg.) was obtained from commercial sources. […] Reactions were initiated by addition of 0.5 μg of elastase in 0.020 mL of 0.020M sodium acetate buffer, pH 6.0, and hydrolysis of substrate was monitored spectrophotometrically at 405 nm at 25° C. Assay results are set forth in Table 4, below, expressed as percentages of activity of control mixtures to which no inhibitor was added: […]

emphysema in mice = settings: cited from earlier work
neutrophil elastase [4] = target: T1, neutrophil elastase; settings: cited from earlier work
[5] = system: experimentally-induced emphysema in hamsters; settings: intraperitoneally; cited from earlier work
chymotrypsin = chymotrypsin (Bos taurus, UniProt P00766); settings: Matteson et al.; cited from earlier work
[6] = plasma incubated at 4°
Description: The stability of inhibitory capacity provided by MeOSuc-AlaAlaPro-Boroval-OH in plasma was determined by incubating samples of plasma containing inhibitor at 4° for 24 hours, followed by assays for inhibitory capacity conducted as above.

neutrophil elastase [7] = target: T1, neutrophil elastase; assay: Inhibition of neutrophil elastase, additional peptide inhibitors preincubated in phosphate buffer (Table 3); assay type: biochemical; set-up: Neutrophil elastase was prepared by the procedure described by Baugh. et al; from tissue; settings: Conc. 1.0 × 10^-7 M
Description: Additional peptide inhibitors were evaluated by a procedure similar to that described above. Stock solutions of inhibitors (1.00 mM) were prepared in dimethylsulfoxide and compounds were diluted to 0.10 mM with […], pH 7.5, yielding the free boronic acid. After incubation for one hour at about 23°, inhibitors were added to assay solutions (2.00 mL) consisting of […] MeOSuc-Ala-AlaProVal-p-nitroanilide in 0.10M Hepes buffer, pH 7.5, containing 0.50M NaCl. Assays were initiated by addition of 0.50 μg neutrophil elastase. Control assays without inhibitor indicated an initial velocity of 0.0195 min^-1. The value "k" in Table 3, below, is an estimate of the first order rate constant for time-dependent inhibition, as described above for MeOSuc-AlaAlaPro-Boroval-OH (Table 1).

neutrophil elastase [8] = target: T1, neutrophil elastase; assay: Kinetic constants for interaction with human neutrophil elastase (Table 1); assay type: biochemical; set-up: Neutrophil elastase was prepared by the procedure described by Baugh. et al; from tissue
Description: A more extensive evaluation of the kinetic constants for interaction of human neutrophil elastase with MeOSuc-AlaAlaPro-Boroval-OH were determined by methods substantially similar to those disclosed by Schloss, et al., Biochemistry 19:2358 (1980), who describe the following equation describing reversible, tight binding inhibition: [drawing 13]
As determined herein, Ki (initial)=k2 /k1; Ki (final)=(k2 /k1)k4 /(k3 +k4); and […]; E=[Enzyme]; I=[inhibitor]; EI and EI*=[enzyme-inhibitor complexes].
Ki (initial) was determined from initial velocity studies, according to the method of Lineweaver and Burk. Substrate concentration was varied from 0.80-0.04 mM, and concentration of inhibitor (MeOSuc-AlaAlaPro-Boroval-OH) was 200 nM. Observed inhibition appeared to be competitive, since double reciprocal plots of initial velocity vs. substrate concentration intercepted the y-axis at the same point.
The data were fitted to the following equation: P=P0 +(vi -vf)/k+vf t+(vf -vi)e^-kt /k. P is the concentration of product at time t, vi is the initial velocity, vf is the final steady state velocity, k is the first order rate constant and P0 is the concentration of product at t=0. Values of Ki (initial) and Ki (final) were then determined from plots of velocity^-1 vs. concentration of inhibitor using the method described by Dixon, Biochem. J. 55:170 (1953).

α-chymotrypsin = target: T3, α-chymotrypsin (Bos taurus, UniProt P00766); settings: competitive inhibitor; Lindquist et al.; cited from earlier work
T3 construct: purchased

N-succinyl-L-alanyl-L-alanyl-L-prolyl-L-valine chloromethyl ketone [Suc-Ala-Ala-Pro-ValCH2 Cl]
effectiveness (hamsters): effective

COC(=O)CCC(=O)N[C@@H](C)C(=O)N[C@@H](C)C(=O)N1CCC[C@H]1C(=O)NC(B1OC(C)(C)C(C)(C)O1)C(C)C (stereo partly drawn) [MeOSuc--Ala--Ala--Pro--Boroval--pinacol, MeOSuc-AlaAlaPro-Boroval-pinacol]
elevation of plasma EIC [1]: at least 10 fold

CC(C)(C)OC(=O)N[C@@H](Cc1ccccc1)C(=O)N1CCC[C@H]1C(=O)N[C@@H](Cc1ccccc1)B1OC(C)(C)C(C)(C)O1 [Boc--Phe--Pro--Borophe--pinacol, Boc-PhePro-Borophe-pinacol]
% Activity (neutrophil elastase [2]; 0.5 min): 42% | % Activity (neutrophil elastase [2]; 2 min): 23% | % Activity (neutrophil elastase [2]; 4 min): 17% | Activity % of Control (Bovine α-chymotrypsin): 69 % of Control | Activity % of Control ([3]; 0.5 min): 69.1 % of Control | Activity % of Control ([3]; 4.0 min): 21 % of Control

N-methoxysuccinyl-L-alanyl-L-alanyl-L-prolyl-L-valine chloromethyl ketone [MeOSuc-Ala-Ala-Pro-ValCH2 Cl]
effectiveness (emphysema in mice; administered more than fifteen minutes prior to intrapulmonary instillation of elastase): ineffective | treatment of emphysema (emphysema in mice; given orally): effective agent in the treatment of emphysema | concentration exhibiting inhibitory activity (neutrophil elastase [4]): 25 µM

N-acetyl-L-alanyl-L-alanyl-L-prolyl-L-alanine chloromethyl ketone [Ac-Ala-Ala-Pro-AlaCH2 Cl]
block of experimentally-induced emphysema [5]: effectively block experimentally-induced emphysema

CC(=O)N[C@@H](Cc1ccccc1)B(O)O [(R)-1-acetamido-2-phenylethaneboronic acid]
Ki (chymotrypsin): 4000 nM

COC(=O)CCC(=O)N[C@@H](C)C(=O)N[C@@H](C)C(=O)N1CCC[C@H]1C(=O)NC(B(O)O)C(C)C (stereo partly drawn) [MeOSuc--Ala--Ala--Pro--Boroval--OH, MeOSuc-AlaAlaPro-Boroval-OH]
% Activity, Plasma + Inhibitor ([6]; t = 0 hr.): 18.5% | % Activity, Plasma + Inhibitor ([6]; t = 48 hr.): 17% | % Initial Activity (neutrophil elastase [7]): 61% | k, first order rate constant for time-dependent inhibition (neutrophil elastase [7]): 0.27 min⁻¹ | Ki (neutrophil elastase [8]; initial velocity studies, Lineweaver and Burk, inhibitor 200 nM, read-out: Ki Initial): 150 nM | Ki (neutrophil elastase [8]; progressive inhibition, Dixon plot, t = 0, inhibitor 30-300 nM, read-out: Ki Initial): 91 nM | Ki (neutrophil elastase [8]; progressive inhibition, Dixon plot, t = infinity, equilibrium, read-out: Ki Final): 6.2 nM

O=C(NCB(O)O)c1ccccc1 [N-benzoylaminomethaneboronic acid]
Ki (α-chymotrypsin): 1000 to 4000 nM
